Measurements: the NIST ThermoML archive (doi:10.1021/je900550v)
± gives the expanded uncertainty stated by the source.

Assay: refractive index (Na D-line) (dimensionless)
Settings: 101.33 kPa, Liquid, Standard Abbe refractometry

CC(=O)[O-].C[NH2+]CCO [N-methyl-2-hydroxyethylammonium acetate]
Settings	refractive index
288.25 K	1.4518 ± 0.0005
293.23 K	1.4506 ± 0.0005
298.15 K	1.4494 ± 0.0005
303.13 K	1.4483 ± 0.0005
308.13 K	1.447 ± 0.0005
313.05 K	1.4457 ± 0.0005
318.13 K	1.4445 ± 0.0005
323.1 K	1.4433 ± 0.0005

CC(C)C(=O)[O-].C[NH2+]CCO [2-hydroxy-N-methylethanaminium isobutyrate]
Settings	refractive index
288.11 K	1.4539 ± 0.0005
293.15 K	1.4525 ± 0.0005
298.05 K	1.4511 ± 0.0005
303.05 K	1.4496 ± 0.0005
308.05 K	1.4481 ± 0.0005
313.05 K	1.4463 ± 0.0005
318.08 K	1.4448 ± 0.0005
323.15 K	1.4433 ± 0.0005

CCCC(=O)[O-].C[NH2+]CCO [N-methyl-2-hydroxyethylammonium butanoate]
Settings	refractive index
288.15 K	1.4579 ± 0.0005
293.15 K	1.4564 ± 0.0005
298.15 K	1.4549 ± 0.0005
303.15 K	1.4534 ± 0.0005
308.15 K	1.452 ± 0.0005
313.15 K	1.4504 ± 0.0005
318.15 K	1.4488 ± 0.0005
323.15 K	1.4471 ± 0.0005

CCC(=O)[O-].C[NH2+]CCO [2-hydroxy-N-methylethanaminium propionate]
Settings	refractive index
288.15 K	1.4561 ± 0.0005
293.2 K	1.4548 ± 0.0005
298.2 K	1.4534 ± 0.0005
303.15 K	1.452 ± 0.0005
308.15 K	1.4507 ± 0.0005
313.18 K	1.4492 ± 0.0005
318.15 K	1.4478 ± 0.0005
323.15 K	1.4464 ± 0.0005

C[NH2+]CCO.O=C[O-] [2-hydroxy-N-methylethanaminium formate]
Settings	refractive index
288.35 K	1.4485 ± 0.0005
293.15 K	1.447 ± 0.0005
298.35 K	1.4458 ± 0.0005
303.15 K	1.4446 ± 0.0005
308.23 K	1.4429 ± 0.0005
313.1 K	1.4418 ± 0.0005
318.15 K	1.4406 ± 0.0005
322.85 K	1.4396 ± 0.0005

CCCCC(=O)[O-].C[NH2+]CCO [2-hydroxy-N-methylethanaminium pentanoate]
Settings	refractive index
288.15 K	1.4568 ± 0.0005
293.12 K	1.4554 ± 0.0005
298.19 K	1.4538 ± 0.0005
303.15 K	1.4524 ± 0.0005
308.18 K	1.4508 ± 0.0005
313.25 K	1.4492 ± 0.0005
318.15 K	1.4474 ± 0.0005
323.18 K	1.4461 ± 0.0005
